Reference: publication PMC12156344, “Furin-Triggered Peptide Self-Assembly Activates Coumarin Excimer Fluorescence for Precision Live-Cell Imaging” (Molecules, 2025)
Peptide text beside a SMILES is read from it. * marks the point of attachment. DEAC = CCN(CC)c1ccc2cc(C(=O)*)c(=O)oc2c1

How the values were obtained:
[1] = physchem
[2] = Critical micelle concentration (CMC) measurement by transmittance; conditions: furin working buffer
Experimental: The transmittance spectra of the solutions were measured using a UV-3600 spectrophotometer (SHIMADZU, Kyoto, Japan).

[3] = test system: furin-overexpressing 4T1 tumor cells; experiment: Confocal live-cell fluorescence imaging of furin activity, 4T1 cells; type: cell-based, mouse; conditions: 200 μM
Experimental: (§1) 4T1 cells or L929 cells were seeded on confocal dishes (1 × 10^5 cells/dish) and incubated at 37 °C in a humidified atmosphere of 5% CO2 for 24 h. Following the removal of the conditioned medium, 4T1 cells or L929 cells were treated with RF-Cou (200 μM) at various times (0, 0.5, 1, 2, 4, 6, and 8 h). After the incubation was completed, the medium was discarded, PBS was added to clean the cells three times, and laser confocal scanning microscopy was used for cell imaging. To investigate the role of furin in activating excimer fluorescence, 4T1 cells were pre-incubated with 1 mM of furin inhibitor II (Inh) for 30 min and then treated with RF-Cou (200 μM) for 0.5 h or 6 h before imaging.
(§2) Figure 5 (a) Confocal fluorescence images of furin-overexpressing 4T1 cells or normal L929 cells incubated with 200 μM RF-Cou at varying time points; λex = 405 nm, monomer channel (blue) λem = 415–485 nm; excimer channel (green) λem = 520–600 nm; Scale bar: 50 μm. Time-dependent relative fluorescence intensity in monomer and excimer channels of 4T1 (b) or L929 (c) cells, respectively (n = 3, mean ± SD).
Figure 6 (a) Confocal fluorescence images of 4T1 or L929 cells incubated with 200 μM RF-Cou for 0.5 h or 6 h after being treated with or without furin inhibitor (Inh); λex = 405 nm, monomer channel (blue) λem = 415–485 nm; excimer channel (green) λem = 520–600 nm; Scale bar: 50 μm. Fluorescence intensity in monomer and excimer channels of 4T1 (b) or L929 (c) cells, respectively (n = 3, mean ± SD). Flow cytometry results of the excimer channel fluorescence in 4T1 (d) or L929 (e) incubated with 200 μM RF-Cou for 6 h after being treated with or without Inh.

[4] = Transmission electron microscopy (TEM) of self-assembly; type: physicochemical; conditions: aqueous solution, particle size distribution histogram (Figure 3b, S10)
From the text: (§3) Next, we examined the factors driving excimer formation. […] […].

[5] = Dynamic light scattering (DLS); type: physicochemical; conditions: solution; DLS (Figure S11)
From the text: as §3

[6] = biological target: furin (Homo sapiens, UniProt P09958); type: biochemical; conditions: 200 μM with 50 U/mL furin, 37 °C, 12 h
Experimental: Based on the above in vitro experiments, we concluded that RF-Cou existed as a blue fluorescent monomer in aqueous solution. […] These findings validated the feasibility of using RF-Cou for subsequent precision live-cell imaging studies of furin activity.
Figure 3 (a) Fluorescence decay profiles of the first emission peak at 475 nm (blue) and the last emission peak at 550 nm (green) of 200 μM F-Cou; λex = 405 nm. (b) TEM image of F-Cou. Inset: the particle size distribution histogram. (c) LC-MS traces of 200 μM RF-Cou incubated with or without 50 U/mL furin at 37 °C for 12 h. The blue line corresponds to the probe RF-Cou, and the green line represents its cleavage product F-Cou. TEXT PRINTED IN THE PICTURE: (a) no label printed: First peak at 475 nm <τ> = 4.26 ns; Last peak at 550 nm <τ> = 10.73 ns | (b) no label printed: d = 51.1 ± 9.8 nm

[7] = test system: L929 normal cells; experiment: Confocal live-cell fluorescence imaging, L929 cells; type: cell-based, mouse; conditions: 200 μM
Experimental: as §1, §2
Figure 6 (a) Confocal fluorescence images of 4T1 or L929 cells incubated with 200 μM RF-Cou for 0.5 h or 6 h after being treated with or without furin inhibitor (Inh); λex = 405 nm, monomer channel (blue) λem = 415–485 nm; excimer channel (green) λem = 520–600 nm; Scale bar: 50 μm. […]

[8] = test system: normal mouse fibroblast L929 cells; type: cell-based; conditions: 200 µM
Experimental: 4T1 mouse breast cancer cells or L929 mouse fibroblast cells were cultured in RPMI-1640 medium or Dulbecco’s Modified Eagle’s medium (DMEM) supplemented with 10% v/v FBS, 100 U/mL penicillin, 100 μg/mL streptomycin, and 0.25 μg/mL amphotericin B, respectively. These cells were incubated at 37 °C in a humidified atmosphere of 5% CO2. First, the cells (4T1, L929 cell lines) were seeded in 96-well plates (3 × 10^3 cells in each well) and incubated in a 37 °C cell incubator for 24 h. The RPMI-1640 medium or DMEM was replaced with different concentrations of RF-Cou (0, 1.5, 3.1, 6.2, 12.5, 25.0, 50.0, 100, and 200 μM) in the medium and incubated for 24 h or 48 h, respectively. MTT (5 mg/mL, 10 μL) was then added to each well, and the cells were incubated for another 4 h. The formed formazan crystals were dissolved by DMSO (100 μL per well), and the absorbance at 570 nm was measured using a microplate reader (BioTek, Winooski, VT, USA).

[9] = not given; remark: listed apart in the source
[10] = Concentration-dependent fluorescence (excimer formation) in furin working buffer; type: physicochemical; conditions: under UV irradiation (365 nm lamp)
Experimental: In the next phase, we investigated the optical properties of RF-Cou and its enzymatic product F-Cou. […] In contrast, as the concentration increased, a new emission peak around 550 nm gradually emerged in the fluorescence spectra of F-Cou. […] These observations confirmed the formation of Cou excimers.
Figure 2 The fluorescence emission spectra and images of RF-Cou (a,c) and F-Cou (b,d) at different concentrations in furin working buffer. […] The fluorescence spectra were conducted with the excitation of 430 nm and the slit width of 5 nm. The fluorescence images were taken under the 365 nm UV lamp irradiation.

[11] = not given; remark: listed apart in the source
[12] = not given; remark: listed apart in the source
[13] = not given; remark: listed apart in the source

Sequence of furin (P09958 108-794, species assumed): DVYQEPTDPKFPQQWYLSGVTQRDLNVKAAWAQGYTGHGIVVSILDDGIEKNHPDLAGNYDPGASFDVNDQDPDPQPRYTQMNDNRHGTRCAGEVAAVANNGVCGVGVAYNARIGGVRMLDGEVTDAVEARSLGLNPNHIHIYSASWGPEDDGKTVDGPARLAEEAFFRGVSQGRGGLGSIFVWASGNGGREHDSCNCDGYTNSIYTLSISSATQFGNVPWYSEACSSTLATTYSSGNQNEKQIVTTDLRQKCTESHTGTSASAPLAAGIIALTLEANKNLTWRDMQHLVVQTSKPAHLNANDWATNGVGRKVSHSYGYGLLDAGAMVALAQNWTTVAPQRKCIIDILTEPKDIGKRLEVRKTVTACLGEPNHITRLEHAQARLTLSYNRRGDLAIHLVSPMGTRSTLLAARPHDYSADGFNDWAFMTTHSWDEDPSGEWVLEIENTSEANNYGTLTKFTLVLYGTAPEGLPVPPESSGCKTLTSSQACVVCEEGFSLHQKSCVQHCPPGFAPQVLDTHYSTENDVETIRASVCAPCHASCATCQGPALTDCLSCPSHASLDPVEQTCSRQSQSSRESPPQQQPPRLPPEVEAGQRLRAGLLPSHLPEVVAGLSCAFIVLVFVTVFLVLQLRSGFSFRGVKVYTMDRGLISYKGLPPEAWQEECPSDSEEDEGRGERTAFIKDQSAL

SMILES	logP [1]	Transmittance (self-assembly performance) ([2]; concentrations up to 800 μM, transmittance at 600 nm, UV-3600 spectrophotometer)	Excimer fluorescence after furin inhibitor pretreatment ([3]; 4T1 cells pretreated with 1 mM furin inhibitor II (Inh) for 30 min, 6 h)	Cellular uptake ([3]; 4T1 cells with or without Inh pretreatment, 0.5 h, confocal fluorescence)	Excimer channel fluorescence intensity vs monomer channel ([3]; 4T1 cells, peak at 6 h, λex 405 nm, excimer 520–600 nm, monomer 415–485 nm, n = 3)	Nanoparticle diameter by TEM [4]	Hydrodynamic diameter by DLS [5]	Cleavage by furin, LC-MS [6]	maximum emission peak	Cellular uptake ([7]; 0.5 h, confocal fluorescence)	Monomer channel fluorescence intensity vs excimer channel ([7]; 6 h, λex 405 nm, excimer 520–600 nm, monomer 415–485 nm, n = 3)	Cell viability [8]	maximum absorption peak [9]	Concentration above which the solution changes from blue to green (excimer formation) [10]	fold enhancement of fluorescence lifetime, 550 nm vs 475 nm band [11]	Critical micelle concentration (CMC) ([2]; transmittance-concentration curve at 600 nm (Figure S9))	fluorescence lifetime <τ>, 475 nm emission peak [12]	fluorescence lifetime <τ>, 550 nm emission peak [13]
CCN(CC)c1ccc2cc(C(=O)NCCCC[C@H](NC(=O)[C@H](CCCNC(=N)N)NC(=O)[C@H](CCCNC(=N)N)NC(=O)[C@@H](NC(=O)[C@H](CCCNC(=N)N)NC(C)=O)C(C)C)C(=O)N[C@@H](Cc3ccccc3)C(=O)N[C@@H](Cc3ccccc3)C(=O)O)c(=O)oc2c1 [RF-Cou, Ac-Arg-Val-Arg-Arg-Lys(Cou)-Phe-Phe-OH] (Ac-RVRRK(DEAC)FF-OH)	-1.46	> 95%	significantly weaker than that in cells without Inh pretreatment	successful cellular uptake	3.2 fold	no nanoparticle distribution was observed	no detectable signal corresponding to nanoparticles	could be enzymatically processed by furin to generate F-Cou	475 nm	successful cellular uptake	approximately 5.1 fold	over 80%	430 nm					
CCN(CC)c1ccc2cc(C(=O)NCCCC[C@H](N)C(=O)N[C@@H](Cc3ccccc3)C(=O)N[C@@H](Cc3ccccc3)C(=O)O)c(=O)oc2c1 [F-Cou, Lys(Cou)-Phe-Phe-OH]	1.15					51.1 ± 9.8 nm	69.2 ± 18.4 nm						430 nm	exceeded 31.25 μM	2.5 fold	45.1 µM	4.26 ns	10.7 ns
